pIC50: −log10 of the molar value.
How the values were obtained:
α4β7 integrin = α4β7 integrin (Homo sapiens (Human), UniProt P13612+P26010); experiment: Integrin Adhesion Assay: Protocol 4 (MAdCAM-coated plate, RPMI-8866 cells with stable LOF mutation of the ITGB1 gene); assay type: cell-based; conditions: RPMI-8866 cells with stable LOF mutation of the ITGB1 gene; read-out: Mean IC50 α4β7 KO^a
Protocol: (§1) Integrin Adhesion Assay Using Genetically Modified Cells Generating Stable Cell Lines with ITGB1 or ITGB7 Knockout (Protocol 4 and Protocol 5)
(§2) To obtain subclones of the RPMI-8866 cell line (Sigma-Aldrich, St. Louis, MO) that were individually deficient in either integrin β1 or integrin β 7, CRISPR/Cas9 technology was employed (PMID: 30108345). Specifically, a Neon™ Transfection System System 10 μL Kit and the Neon™ Transfection device (both from ThermoFisher Scientific) were used.
(§3) The protocol was performed following the manufacturer instructions, described in https://www.thermofisher.com/document-connect/document-connect.html?url=https % 3A%2F%2F assets.thermofisher.com%2FTFS-Assets%2FLSG%2Fmanuals%2FMAN0017066_TrueCut Cas9_Protein_v2_UG.pdf, which is incorporated by reference herein in its entirety.
(§4) RPMI-8866 cells were transferred to a flask the day before transfection, at a confluence of 5×10^5 cells/mL. The cells were washed with PBS and resuspended in buffer R (Neon™ Transfection System, Invitrogen) to 2×10^5 cells/10 uL for each reaction. The TrueCut™ HiFi Cas9 Protein (1250 ng per reaction) was mixed with TrueGuide™ sgRNA (7.5 pmoles each/pool of 3 sequences, table 1) (ThermoFisher Scientific). This mix was combined with the RPMI-8866 cells and electroporated on the Neon system at 1700V/20 ms/1 pulse. Transfected cells were allowed to recover in 500 μL pre-warmed cRMPI media (RPMI-1640 media with 10% FBS, 100 U/ml Penicillin-Streptomycin) at 37° C., 5% CO2 for 24 hours. At that time, an extra 500 μL of pre-warmed cRMPI media was added, and cells were incubated for another 24 hours.
(§5) For flow cytometry analysis, 100 μL of the transfected cells were collected and stained with anti-itga4 (Clone: 9F10, PE, BD Pharmingen™), anti-itgb 1 (Clone: (TS2/16), Super Bright 436, eBioscience), anti-itgb7 (Clone: FIB504, Brilliant Violet 650, BD Pharmingen™) and viability dye (LIVE/DEAD™ Fixable Green Dead Cell Stain, Invitrogen™). An Attune NxT Flow Cytometer was used to analyze the CRISPR-transfected cells. The flow cytometry results were analyzed using FlowJo™ v10.8.1 Software (BD Life Sciences). Fluorescence minus one (FMO) controls were used to select appropriate gates for data analysis.
(§6) To generate an individual clones of cells deficient in either ITGB7 or ITGB1 by limiting dilution assay, the transfected cells were resuspended at 5 cells/mL and seeded in 384 well plates. Outgrowth of clones was monitored using a microscope, and 24 clones were transferred for expansion. Expression of either integrin was verified by flow cytometry in each of the clones. One clone of each integrin b7 or the integrin b1 knockout was chosen, expanded and aliquots were frozen in vapor phase liquid nitrogen.
Integrin Adhesion Assay: Protocol 4
(§7) MAdCAM (R&D Systems, 0.1 ug) was diluted in 50 μL PBS, added to each well of an opaque ELISA plate (Thermo), and incubated overnight at 4° C. Coated plates were washed once with PBS and then blocked with 200 μL of assay buffer (10 mM HEPES, 150 mM NaCl, 1 mM MnCl2, 0.1 mM CaCl2), 1% BSA) for 1 hour at 37° C. and 5% CO2. After incubation, buffer was aspirated from the plates and 50 μL of fresh assay buffer was added. Compounds were added using a compounds dispenser (Tecan), and DMSO concentration was normalized to 1% across each plate. 50 μL of RPMI-8866 cells with a stable loss of function (LOF) mutation of the ITGB1 gene (2×10^6 per mL) were added to each well and the plates were incubated for 1 hour at 37° C. at a CO2 concentration of 5%. After incubation, plates were allowed to cool to RT for 10 minutes before being washed four times in assay buffer by an automated plate washer (BioTek). After washing, 100 μL of a 1:1 mixture of assay buffer and CellTiter GLO 2.0 reagent (Promega) were added to each well. Plates were mixed for 2 minutes at 1000 rpm and then allowed to incubate an additional 10 minutes before reading out luminescence on a Tecan Spark plate reader. […]

α4β1 integrin = α4β1 integrin (Homo sapiens (Human), UniProt P05556+P13612); experiment: Integrin Adhesion Assay: Protocol 5 (VCAM-coated plate, RPMI-8866 cells with stable LOF mutation of the ITGB7 gene); assay type: cell-based; conditions: RPMI-8866 cells with stable LOF mutation of the ITGB7 gene; read-out: Mean IC50 α4β1 KO^b
Protocol: as §1, §2, §3, §4, §5, §6
Integrin Adhesion Assay: Protocol 5
as §7, with “VCAM” for “MAdCAM”, “by” for “using a”, “(Tecan)” for “(Tecan),”, “LOF” for “loss of function (LOF)”, “ITGB7” for “ITGB1”, “and 5% CO2.” for “at a CO2 concentration of 5%.”

Sequence of α4β7 integrin (P13612 34-1032): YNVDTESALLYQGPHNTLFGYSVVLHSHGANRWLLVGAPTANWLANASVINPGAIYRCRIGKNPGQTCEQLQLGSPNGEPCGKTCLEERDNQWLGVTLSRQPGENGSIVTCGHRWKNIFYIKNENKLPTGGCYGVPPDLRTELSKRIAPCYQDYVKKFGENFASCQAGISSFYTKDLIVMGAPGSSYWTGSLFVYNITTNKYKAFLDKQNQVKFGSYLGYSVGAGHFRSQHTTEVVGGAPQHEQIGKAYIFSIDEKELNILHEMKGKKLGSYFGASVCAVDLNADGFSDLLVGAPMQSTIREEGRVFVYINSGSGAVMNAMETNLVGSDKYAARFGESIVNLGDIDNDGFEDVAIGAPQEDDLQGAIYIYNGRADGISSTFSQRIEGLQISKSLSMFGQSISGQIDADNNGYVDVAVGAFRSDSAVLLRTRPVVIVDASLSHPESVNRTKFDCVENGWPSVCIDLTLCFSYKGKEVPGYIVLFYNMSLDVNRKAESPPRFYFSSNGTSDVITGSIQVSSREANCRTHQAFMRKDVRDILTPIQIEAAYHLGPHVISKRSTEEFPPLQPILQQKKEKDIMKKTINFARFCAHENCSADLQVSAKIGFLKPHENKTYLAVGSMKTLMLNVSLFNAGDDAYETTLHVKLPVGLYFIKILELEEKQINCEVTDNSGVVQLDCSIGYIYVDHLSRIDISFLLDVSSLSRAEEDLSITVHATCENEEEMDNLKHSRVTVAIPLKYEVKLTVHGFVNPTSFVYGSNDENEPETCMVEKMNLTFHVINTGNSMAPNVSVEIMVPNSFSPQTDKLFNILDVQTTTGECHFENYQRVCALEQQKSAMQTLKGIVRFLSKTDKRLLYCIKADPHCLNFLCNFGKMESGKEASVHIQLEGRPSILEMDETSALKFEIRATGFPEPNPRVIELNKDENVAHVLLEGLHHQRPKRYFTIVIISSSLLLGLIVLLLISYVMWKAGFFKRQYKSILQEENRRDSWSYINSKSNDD
Sequence of α4β7 integrin (P26010 20-798): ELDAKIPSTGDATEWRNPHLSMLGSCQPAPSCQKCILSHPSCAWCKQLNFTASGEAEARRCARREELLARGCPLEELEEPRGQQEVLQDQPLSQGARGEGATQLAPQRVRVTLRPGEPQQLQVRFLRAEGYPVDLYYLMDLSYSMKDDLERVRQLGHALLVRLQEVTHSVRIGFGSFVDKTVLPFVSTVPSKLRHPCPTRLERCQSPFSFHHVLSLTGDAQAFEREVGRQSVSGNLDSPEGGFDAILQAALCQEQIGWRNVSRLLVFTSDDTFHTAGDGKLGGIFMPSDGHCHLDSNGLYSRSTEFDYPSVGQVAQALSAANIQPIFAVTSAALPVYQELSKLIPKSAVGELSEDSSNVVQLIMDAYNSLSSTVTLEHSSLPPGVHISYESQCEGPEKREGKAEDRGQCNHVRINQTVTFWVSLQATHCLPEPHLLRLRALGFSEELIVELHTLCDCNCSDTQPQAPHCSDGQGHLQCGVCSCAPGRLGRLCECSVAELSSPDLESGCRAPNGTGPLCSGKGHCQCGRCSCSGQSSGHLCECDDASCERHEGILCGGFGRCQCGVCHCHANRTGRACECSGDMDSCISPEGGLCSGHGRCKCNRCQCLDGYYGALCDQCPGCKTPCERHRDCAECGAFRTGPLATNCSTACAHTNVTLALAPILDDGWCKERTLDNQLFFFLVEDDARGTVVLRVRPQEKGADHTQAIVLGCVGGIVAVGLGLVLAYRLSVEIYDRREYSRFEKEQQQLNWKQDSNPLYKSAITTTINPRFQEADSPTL
Sequence of α4β1 integrin (P13612 34-1032): as the sequence (P13612 34-1032) above
Sequence of α4β1 integrin (P05556 21-798): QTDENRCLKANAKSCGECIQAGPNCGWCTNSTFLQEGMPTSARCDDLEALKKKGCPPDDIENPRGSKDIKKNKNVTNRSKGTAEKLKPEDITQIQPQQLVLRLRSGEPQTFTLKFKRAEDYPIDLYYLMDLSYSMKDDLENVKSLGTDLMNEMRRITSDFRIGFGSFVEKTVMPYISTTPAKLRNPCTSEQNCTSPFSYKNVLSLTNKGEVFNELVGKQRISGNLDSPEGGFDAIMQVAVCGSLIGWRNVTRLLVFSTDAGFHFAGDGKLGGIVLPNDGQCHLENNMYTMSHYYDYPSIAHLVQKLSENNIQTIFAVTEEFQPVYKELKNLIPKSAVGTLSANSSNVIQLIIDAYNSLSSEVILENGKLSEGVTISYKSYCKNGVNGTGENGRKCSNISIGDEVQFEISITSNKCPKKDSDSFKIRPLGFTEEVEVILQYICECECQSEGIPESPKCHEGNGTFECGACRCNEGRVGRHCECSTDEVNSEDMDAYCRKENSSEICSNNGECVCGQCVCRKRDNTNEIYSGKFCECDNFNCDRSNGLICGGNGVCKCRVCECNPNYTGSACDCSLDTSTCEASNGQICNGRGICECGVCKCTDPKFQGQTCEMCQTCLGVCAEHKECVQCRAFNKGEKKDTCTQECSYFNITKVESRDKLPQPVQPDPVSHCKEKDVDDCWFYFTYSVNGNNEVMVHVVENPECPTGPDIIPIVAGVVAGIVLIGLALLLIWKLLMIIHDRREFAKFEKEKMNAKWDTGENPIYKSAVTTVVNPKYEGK

Row | pIC50 (α4β7 integrin) | pIC50 (α4β1 integrin) | Structure (SMILES)
1 | > 8.00 | 6.00 to 7.00 | COc1ccc(CCN(C)C)c(OC)c1-c1cccc2c(C[C@H](NC(=O)C3(C(F)(F)F)CCN(CC(F)(F)F)CC3)C(=O)O)cccc12 [Compound 468]
2 | 7.00 to 8.00 | 6.00 to 7.00 | CN(C)CCc1cc(-c2cccc3c(C[C@H](NC(=O)C4(C(F)(F)F)CCN(CC(F)(F)F)CC4)C(=O)O)cccc23)c2cnccc2c1 [Compound 469]
3 | > 8.00 | 6.00 to 7.00 | COC(=O)[C@H](Cc1cccc2c(-c3nccc4cc(CCN(C)C)ccc34)cccc12)NC(=O)OC(C)(C)C [Compound 471]
4 | > 8.00 | 6.00 to 7.00 | COc1cc2c(c(OC)c1-c1cccc3c(C[C@H](NC(=O)c4c(C)cccc4F)C(=O)O)cccc13)CN(CC(F)(F)F)CC2 [Compound 475]
5 | > 8.00 | 6.00 to 7.00 | CN(C)Cc1ccc2c(C(F)(F)F)c(-c3cccc4c(C[C@H](NC(=O)C5(C(F)(F)F)CCN(CC(F)(F)F)CC5)C(=O)O)cccc34)c(=O)n(C)c2c1 [Compound 476]
6 | > 8.00 | 6.00 to 7.00 | COc1cncc(OC)c1-c1cccc2c(C[C@H](NC(=O)c3c(C)cccc3F)C(=O)O)cccc12 [Compound 477]
7 | > 8.00 | < 6.00 | COc1cc(CN(C)C)cc(OC)c1-c1cccc2c(C[C@H](NC(=O)C3(C(F)(F)F)CCN(CC(F)(F)F)CC3)C(=O)O)cccc12 [Compound 478]
8 | > 8.00 | 6.00 to 7.00 | COc1ccc(CN(C)C)c(OC)c1-c1cccc2c(C[C@H](NC(=O)c3c(F)cccc3C(F)(F)F)C(=O)O)cccc12 [Compound 479]
9 | > 8.00 | 6.00 to 7.00 | O=C(O)[C@H](Cc1cccc2c(-c3nccc4ccc(CCCN5CCCCC5)cc34)cccc12)NC(=O)C1(C(F)(F)F)CCN([C@H]2COCC2(F)F)CC1 [Compound 482]
10 | > 8.00 | < 6.00 | O=C(O)[C@H](Cc1cccc2c(-c3nccc4ccc(CCCN5CCCCC5)cc34)cccc12)NC(=O)C1(C(F)(F)F)CCN([C@@H]2COCC2(F)F)CC1 [Compound 483]
11 | 7.00 to 8.00 | < 6.00 | Cn1c(=O)c(-c2cccc3c(C[C@H](NC(=O)c4c(F)cccc4CN4CCC(C)(C)C4)C(=O)O)cccc23)c(C(F)(F)F)c2ccccc21 [Compound 487]
12 | 6.00 to 7.00 | < 6.00 | Cn1c(=O)c(-c2cccc3c(C[C@H](NC(=O)C4(C(F)(F)F)CCN(C(C)(C)C(F)(F)F)CC4)C(=O)O)cccc23)c(C(F)(F)F)c2ccccc21 [Compound 489]
13 | < 6.00 | < 6.00 | Cn1c(=O)c(-c2cccc3c(C[C@H](NC(=O)C4(C(F)(F)F)CCN(C(C(F)(F)F)C(F)(F)F)CC4)C(=O)O)cccc23)c(C(F)(F)F)c2ccccc21 [Compound 490]
14 | 7.00 to 8.00 | < 6.00 | CCCS(=O)(=O)Nc1ccc(F)c(C(=O)N[C@@H](Cc2cccc3c(-c4c(C(F)(F)F)c5ccccc5n(C)c4=O)cccc23)C(=O)O)c1F [Compound 496]
15 | > 8.00 | < 6.00 | O=C(O)[C@H](Cc1cccc2c(-c3nccc4ccccc34)cccc12)NC(=O)C1(C(F)(F)F)CCN(C2COC2)CC1 [Compound 497]
16 | > 8.00 | 6.00 to 7.00 | CCOCc1cc(OC)c(-c2cccc3c(C[C@H](NC(=O)C4(C(F)(F)F)CCN(C5COC5)CC4)C(=O)O)cccc23)c(OC)c1 [Compound 498]
17 | > 8.00 | 6.00 to 7.00 | Cn1c(C(F)(F)F)cc(C(F)(F)F)c(-c2cccc3c(C[C@H](NC(=O)C4(C(F)(F)F)CCN(C5COC5)CC4)C(=O)O)cccc23)c1=O [Compound 499]

The remaining lines, values behind:

Row | Structure (SMILES) | pIC50 (α4β7 integrin) | pIC50 (α4β1 integrin)
18 | Cn1c(=O)c(-c2cccc3c(C[C@H](NC(=O)C4(C(F)(F)F)CCN([C@H]5CCOC5)CC4)C(=O)O)cccc23)c(C(F)(F)F)c2ccccc21 [Compound 457] | > 8.00 | 6.00 to 7.00
19 | COc1ccc2cccnc2c1-c1cccc2c(C[C@H](NC(=O)C3(C(F)(F)F)CCN(CC(F)(F)F)CC3)C(=O)O)cccc12 [Compound 472] | > 8.00 | < 6.00
20 | COc1cc2c(c(OC)c1-c1cccc3c(C[C@H](NC(=O)c4c(C)cccc4F)C(=O)O)cccc13)CN(C)CC2 [Compound 473] | > 8.00 | 6.00 to 7.00
21 | COc1cc2c(c(OC)c1-c1cccc3c(C[C@H](NC(=O)C4(C(F)(F)F)CCN(CC(F)(F)F)CC4)C(=O)O)cccc13)CN(C)CC2 [Compound 474] | > 8.00 | 6.00 to 7.00
22 | Cn1c(=O)c(-c2cccc3c(C[C@H](NC(=O)C4(C)CC5CCC(C4)N5CC(F)(F)F)C(=O)O)cccc23)c(C(F)(F)F)c2ccccc21 (stereo partly drawn) [Compound 481] | 7.00 to 8.00 | 6.00 to 7.00
23 | CC[C@@H](N1CCC(C(=O)N[C@@H](Cc2cccc3c(-c4c(C(F)(F)F)c5ccccc5n(C)c4=O)cccc23)C(=O)O)(C(F)(F)F)CC1)C(F)(F)F [Compound 484] | 6.00 to 7.00 | < 6.00
24 | Cn1c(=O)c(-c2cccc3c(C[C@H](NC(=O)C4(C(F)(F)F)CCN([C@H](C5CC5)C(F)(F)F)CC4)C(=O)O)cccc23)c(C(F)(F)F)c2ccccc21 [Compound 485] | < 6.00 | < 6.00
25 | Cn1c(=O)c(-c2cccc3c(C[C@H](NC(=O)C4(C(F)(F)F)CCN(C5(C(F)(F)F)CC5)CC4)C(=O)O)cccc23)c(C(F)(F)F)c2ccccc21 [Compound 486] | < 6.00 | < 6.00
26 | Cn1c(=O)c(-c2cccc3c(C[C@H](NC(=O)C4(C(F)(F)F)CCN(C5(C(F)(F)F)COC5)CC4)C(=O)O)cccc23)c(C(F)(F)F)c2ccccc21 [Compound 491] | 6.00 to 7.00 | < 6.00
27 | Cn1c(=O)c(-c2cccc3c(C[C@H](NC(=O)C4(C(F)(F)F)CCNCC4)C(=O)O)cccc23)c(C(F)(F)F)c2ccccc21 [Compound 492] | 7.00 to 8.00 | < 6.00
28 | Cn1c(=O)c(-c2cccc3c(C[C@H](NC(=O)C4(C(F)(F)F)CCN(C5CC(F)(F)C5)CC4)C(=O)O)cccc23)c(C(F)(F)F)c2ccccc21 [Compound 493] | 7.00 to 8.00 | 6.00 to 7.00
29 | Cn1c(=O)c(-c2cccc3c(C[C@H](NC(=O)C4(C(F)(F)F)CCN([C@@H]5CCC(F)(F)C5)CC4)C(=O)O)cccc23)c(C(F)(F)F)c2ccccc21 [Compound 494] | 7.00 to 8.00 | 6.00 to 7.00
30 | O=C(N[C@@H](Cc1cccc2c(-c3cccc4cccnc34)cccc12)C(=O)O)c1c(F)cccc1F [Compound 500] | < 6.00 | < 6.00

Source: US20250313535A1, “ALPHA 4 BETA 7 INTEGRIN MODULATORS AND USES THEREOF” (DICE MOLECULES SV, INC., priority 2022, published 2025)
